The source of these data is EPA's ToxValDB 9.5 (doi:10.2903/j.efsa.2011.2334).

SMILES strings stand for the structures. Values after ≈ are worked out from the molar mass of the structure shown. A value given as a limit tells only on which side of the number the result lay.

One series relates to Canidae. Particulars: oral, gavage, Dog Other.
For the next series, the system named is Anas platyrhynchos. Particulars: short-term; oral; feed; mortality.
The test system of a further series is Colinus virginianus. Particulars: acute; oral; mortality.
A further series deals with Oncorhynchus mykiss. Particulars: acute; duration: 96 hours; mortality.
The subject of a further series is Lepomis macrochirus. Particulars: acute; duration: 96 hours; mortality.
The next series has as its system Aleochara bilineata. Particulars: chronic/long-term; duration: 28 days; reproduction.

With `CN=C=S` [Methyl isothiocyanate], the LD50 in the series on Rattus norvegicus (acute, mortality) was 147 mg/kg-day; with Colinus virginianus, 119 mg/kg-day. Moreover, the NOAEL (in general, the highest tested level that showed no adverse finding) with Rattus norvegicus (chronic, duration: 2 years, oral, drinking water, hematological) was determined as 0.44 mg/kg-day; in the series with Rattus norvegicus (repeat dose other, oral, gavage, body weight) it was 3 mg/kg-day; in the series on Canidae (subchronic, duration: 90 days, body weight), 0.4 mg/kg-day. For the same molecule, the LC50 was above 183 mg/kg-day in the series with Anas platyrhynchos and 0.0531 mg/L (≈ 0.726 µM) with Oncorhynchus mykiss.
With `CNC(=S)[S-].[Na+]` [Metam-sodium], the NOAEL stood at 10 mg/kg-day in the series with Rattus norvegicus (developmental, F, development) and 0.1 mg/kg-day with Canidae (chronic, duration: 1 years, M/F, hematological). The LC50 with Lepomis macrochirus was above 0.175 mg/L; with Anas platyrhynchos, above 324 mg/kg-day. Also, the LEL in the series with Aleochara bilineata turned out to be 608000 g/ha. Also, the LD50 with Colinus virginianus came to 211 mg/kg-day.
